Data from patent US20180332847A1, “ANTIMICROBIAL METAL CARBOXYLATE-BENZISOTHIAZOLINONE MIXTURES” (Troy Corporation, priority 2017, published 2018).
“And” between values parts separate entries of the source, which are not always exact repeats. Equal entries are not always repeated.

Columns and labels:
Type in all cases: cell-based
Candida albicans = test: Minimum Inhibitory Concentration (MIC) by spiral plater / spiral gradient endpoint against Candida albicans
Description: (§1) Synergistic Index=Qa/QA+Qb/QB [Equation No. 1] • where Qa=the quantity of component A used in a binary mixture that gives the desired effect • QA=the quantity of component A which when used alone gives the desired effect • Qb=the quantity of component B used in a binary mixture that gives the desired effect • QB=the quantity of component B which when used alone gives the desired effect
Minimum Inhibitory Concentration (“MIC”) for each of the antimicrobial compositions was determined against a test microbe, which in this case was a spore suspension of the fungus Alternaria alternata, with the aid of an Autoplate 4000 spiral plater that is commercially available from Spiral Biotech, Inc., Norwood, Mass., and its accompanying spiral gradient endpoint software (hereinafter referred to as “the SGE software”). The spiral plater automates the normal serial dilution method for determining MICs. Although the details of the SGE software are held confidentially by Spiral Biotech, Inc., they are believed to consistent with the principles set forth in “Measurement of MICs of antibacterial agents by spiral gradient endpoint compared with conventional dilution method” J. H. Paton, H. A. Holt, and M. J. Bywater—Int. J. Exp. Clin. Chemother, 1990.
The spiral plater automatically applied 54.3 micro-liters of each antimicrobial composition of interest to the surface of 150 millimeter malt agar plates using an exponential application gradient. The concentration of the antimicrobial concentration was greatest near the center of the Petri plates and decreased toward the edges. Antimicrobial composition gradients were allowed to air dry at room temperature for 1 to 4 hours at 23° C. before inoculation with test microbe. Spiral gradient plates were inoculated by streaking with cotton swabs that had been soaked in test microbe spore suspension. Streaks were applied in a radial pattern, using a paper template generated by the SGE software to guide the application. Eight radii were inoculated per Petri plate. Each radius is considered as one replicated observation.
Inoculated spiral gradient plates were incubated for 48 hours in an incubator at 28° C. Visible growth of the test microbe developed along the radial streaks and ended where the concentration of the antimicrobial composition was sufficient to prevent growth. This growth endpoint value (expressed in mm as measured from center point of the Petri plate) was used to calculate MIC for the mixture, expressed as parts per million.
Utilizing the procedure described above in Example, Minimum Inhibitory Concentration (“MIC”) for each of the antimicrobial compositions was determined against a test microbe, which in this case was a spore suspension of the yeast Candida albicans., as described above in Example 1. Several antimicrobial compositions containing calcium gluconate, BIT, or both in water were investigated, as shown below in Table 3
Utilizing the procedure described above in Example 1, Minimum Inhibitory Concentration (“MIC”) for each of the antimicrobial compositions was determined against a test microbe, which in this case was a spore suspension of the yeast Candida albicans. Several antimicrobial compositions containing calcium glycerate, BIT, or both in water were investigated, as shown below in Table 11.
Utilizing the procedure described above in Example 1, Minimum Inhibitory Concentration (“MIC”) for antimicrobial compositions was determined against a test microbe, which in this case was a spore suspension of the yeast Candida albicans. Several antimicrobial compositions containing calcium glycerate, BIT, or both in water were investigated, as shown below in Table 23.
Utilizing the procedure described above in Example 1, Minimum Inhibitory Concentration (“MIC”) for each of the antimicrobial compositions was determined against a test microbe, which in this case was a spore suspension of the fungus Candida Albicans.

Saccharomyces cervisiae = test: Minimum Inhibitory Concentration (MIC) by spiral plater / spiral gradient endpoint against Saccharomyces cervisiae; settings: quantity of BIT used alone that gives the desired effect; calcium gluconate-BIT series; Saccharomyces cervisiae
Description: as §1
(§2) Minimum Inhibitory Concentration (“MIC”) for each of the antimicrobial compositions was determined against a test microbe, which in this case was a spore suspension of the fungus Alternaria alternata, with the aid of an Autoplate 4000 spiral plater that is commercially available from Spiral Biotech, Inc., Norwood, Mass., and its accompanying spiral gradient endpoint software (hereinafter referred to as “the SGE software”). […]
(§3) Inoculated spiral gradient plates were incubated for 48 hours in an incubator at 28° C. […] This growth endpoint value (expressed in mm as measured from center point of the Petri plate) was used to calculate MIC for the mixture, expressed as parts per million.
Utilizing the procedure described above in Example 1, Minimum Inhibitory Concentration (“MIC”) for each of the antimicrobial compositions was determined against a test microbe, which in this case was a spore suspension of the yeast Saccharomyces cervisiae. […]

Klebsiella pneumoniae = test: Minimum Inhibitory Concentration (MIC) by spiral plater / spiral gradient endpoint against Klebsiella pneumoniae; settings: quantity of BIT used alone that gives the desired effect, calcium ethylhexanoate-BIT series
Description: as §1, §2, §3
Utilizing the procedure described above in Example 1, Minimum Inhibitory Concentration (“MIC”) for each of the antimicrobial compositions was determined against a test microbe, which in this case was a spore suspension of the bacteria Klebsiella pneumoniae. […]

[1] = test system: mixed bacterial inoculum: Pseudomonas aeruginosa (ATCC #10145), Escherichia coli (ATCC #11229), Enterobacter aerogenes (ATCC #13048), Alcaligenes faecalis …; test: Two-part bacterial challenge of acrylic latex paint samples with a mixed inoculum (performance ratings); design: key to Performance Ratings Week 1, 1 Day / Performance Ratings Week 1, 2 Days / Performance Ratings Week 1, 8 Days / Performance Ratings Week 2, 1 Day / Performance Ratings Week 2, 2 Days / Performance Ratings Week 2, 8 Days: 0: No bacterial growth; 1: Trace of bacterial growth; 2: Light bacterial growth; 3: Moderate bacterial growth; 4: Heavy bacterial growth; settings: for Performance Ratings Week 1, 1 Day: Week 1, 1 Day after inoculation; for Performance Ratings Week 1, 2 Days: Week 1, 2 Days after inoculation; for Performance Ratings Week 1, 8 Days: Week 1, 8 Days after inoculation; for Performance Ratings Week 2, 1 Day: Week 2, 1 Day after inoculation; for Performance Ratings Week 2, 2 Days: Week 2, 2 Days after inoculation; for Performance Ratings Week 2, 8 Days: Week 2, 8 Days after inoculation
Description: In order to quantify the antibacterial effectiveness of an antimicrobial composition of interest, samples were prepared by adding various amounts of the antimicrobial composition to identical volumes of a paint that contained no preservatives and was not contaminated by bacteria. In this case, the test sample was a white, aqueous-based, acrylic latex paint. The paint included an acrylic resin, and conventional additives such as surfactant, thickener, defoamer, and titanium oxide.
The samples of the paint were subjected to a two-part challenge procedure and the sample that provided acceptable anti-bacterial protection with the lowest concentration of the antimicrobial composition was identified. Each part of the anti-bacterial challenge consisted of a 7-day test cycle. The parts were performed consecutively over 14 test days.
Challenge testing was accomplished using a mixed bacterial inoculum as the contamination event. These bacteria are Pseudomonas aeruginosa (ATCC #10145), Escherichia coli (ATCC #11229), Enterobacter aerogenes (ATCC #13048), and Alcaligenes faecalis (ATCC #25094). To prepare the test inoculum, each type of bacteria was harvested separately in nutrient broth. Just before use in the challenge test, equal strengths of each bacterial culture were mixed to obtain an inoculum of approximately 10^8 colony forming units per milliliter (cfu/mL).
After incubation, both control blanks and samples containing preservatives of interest were inoculated with the mixed inoculum to a final of 1.0 weight %. […]
Performance ratings of 0, 1, 2, 3 or 4 for each inoculated paint sample were determined by visual inspection of the streak lines, according to the definitions set forth below in Table 25.

With O=c1[nH]sc2ccccc12 [BIT, 1,2-benzisothiazol-3(2H)-one] the QB (Candida albicans; MIC of BIT alone for Candida albicans (average of Trials 1, 2), used for SI (zinc ethylhexanoate series)) was 19 ppm, the QB (Candida albicans; MIC of BIT alone for Candida albicans, used for SI (zinc glycerate series)) was 13 ppm and 16 ppm and the QB (Candida albicans; quantity of BIT used alone that gives the desired effect, calcium gluconate-BIT series, Candida albicans) was 23 ppm. The QB (Candida albicans; quantity of BIT used alone that gives the desired effect, calcium glycerate-BIT series, Candida albicans) was 85 ppm, the “ppm of BIT alone providing the same inhibition” value (Candida albicans; zinc ethylhexanoate-BIT series, Candida albicans) was 19 ppm and the “ppm of BIT alone providing the same inhibition” value (Candida albicans; zinc glycerate-BIT series, Candida albicans) was 13 ppm. For the same molecule, the QB (Saccharomyces cervisiae) was 61 ppm, the QB (Klebsiella pneumoniae) was 27 ppm and the “Performance Ratings Week 1, 1 Day” value ([1]; 50 ppm in acrylic latex paint) was 4. For the same molecule, the “Performance Ratings Week 1, 2 Days” value ([1]; 50 ppm in acrylic latex paint) was 4, the “Performance Ratings Week 1, 8 Days” value ([1]; 50 ppm in acrylic latex paint) was 4 and the “Performance Ratings Week 2, 1 Day” value ([1]; 50 ppm in acrylic latex paint) was 4. The “Performance Ratings Week 2, 2 Days” value ([1]; 50 ppm in acrylic latex paint) was 4, the “Performance Ratings Week 2, 8 Days” value ([1]; 50 ppm in acrylic latex paint) was 4 and the “Performance Ratings Week 1, 1 Day” value ([1]; 500 ppm in acrylic latex paint) was 4. The “Performance Ratings Week 1, 2 Days” value ([1]; 500 ppm in acrylic latex paint) was 2, the “Performance Ratings Week 1, 8 Days” value ([1]; 500 ppm in acrylic latex paint) was 0 and the “Performance Ratings Week 2, 1 Day” value ([1]; 500 ppm in acrylic latex paint) was 4. For the same molecule, the “Performance Ratings Week 2, 2 Days” value ([1]; 500 ppm in acrylic latex paint) was 4 and the “Performance Ratings Week 2, 8 Days” value ([1]; 500 ppm in acrylic latex paint) was 0.
